Measured values published in ChEMBL document CHEMBL4152201, “Novel sarsasapogenin-triazolyl hybrids as potential anti-Alzheimer's agents: Design, synthesis and biological evaluation” (Eur J Med Chem, 2018).
One block for each compound: values may come before it. The source made the active and inactive calls. No cut-off for these calls is given here.

Experiments:
[1] = target: T1, Amyloid-beta precursor protein (Homo sapiens, UniProt P05067); assay: Inhibition of amyloid beta (1 to 42) (unknown origin) self-aggregation at 20 uM after 24 hrs by thioflavin-T fluorescence assay relative to control
[2] = target: T1, Amyloid-beta precursor protein; assay: Inhibition of amyloid beta (1 to 42) (unknown origin) self-aggregation after 24 hrs by thioflavin-T fluorescence assay
[3] = test system: SH-SY5Y; assay: Cytotoxicity against human SH-SY5Y cells at 50 uM after 24 hrs by MTT assay; format: cell-based
[4] = test system: SH-SY5Y; assay: Neuroprotective activity against H2O2-induced oxidative stress in human SH-SY5Y cells assessed as cell viability at 12.5 uM pre-incubated for 1 hr followed by H2O2 addition and measured after 4 hrs by MTT assay relative to control; format: functional; settings: read-out: Activity
[5] = test system: SH-SY5Y; assay: Neuroprotective activity against H2O2-induced oxidative stress in human SH-SY5Y cells assessed as cell viability at 25 uM pre-incubated for 1 hr followed by H2O2 addition and measured after 4 hrs by MTT assay relative to control; format: functional; settings: read-out: Activity
[6] = test system: SH-SY5Y; assay: Neuroprotective activity against H2O2-induced oxidative stress in human SH-SY5Y cells assessed as cell viability at 50 uM pre-incubated for 1 hr followed by H2O2 addition and measured after 4 hrs by MTT assay relative to control; format: functional; settings: read-out: Activity
[7] = test system: Mus musculus; assay: Cognitive enhancing effect in Kunming mouse model of amyloid beta (1 to 42) oligomer-induced memory impairment assessed as […] in spontaneous alternation behaviors at 17.5 to 35 mg/kg/day, po starting from day 1 of amyloid beta (1 to 42) oligomer treatment and measured on day 7 by Y-maze test; format: functional, organism-based
[8] = test system: Mus musculus; assay: Toxicity in Kunming mouse model of amyloid beta (1 to 42) oligomer-induced memory impairment assessed as effect on number of arm entries at 17.5 to 35 mg/kg/day, po starting from day 1 of amyloid beta (1 to 42) oligomer treatment and measured on day 7 by Y-maze test; format: organism-based; settings: in vivo
[9] = test system: Mus musculus; assay: Memory enhancing effect in Kunming mouse model of amyloid beta (1 to 42) oligomer-induced memory impairment assessed as increase in preferential index in retention session of 1 hr at 17.5 mg/kg/day, po starting from day 1 of amyloid beta (1 to 42) oligomer treatment and measured on day 7 by novel object recognition test; format: functional, organism-based
[10] = test system: Mus musculus; assay: Cognitive enhancing effect in Kunming mouse model of amyloid beta (1 to 42) oligomer-induced memory impairment increase in time spent in target quadrant by measuring increase in number of platform crossings at 17.5 to 35 mg/kg/day, po starting from day 1 of amyloid beta (1 to 42) oligomer treatment and measured on day 12 by Morris water maze test; format: functional, organism-based
[11] = test system: Mus musculus; assay: Cognitive enhancing effect in Kunming mouse model of amyloid beta (1 to 42) oligomer-induced memory impairment assessed as longer escape latency at 35 mg/kg, po starting from day 1 of amyloid beta (1 to 42) oligomer treatment and measured on day 7 by passive avoidance test; format: functional, organism-based
[12] = test system: Mus musculus; assay: Cognitive enhancing effect in Kunming mouse model of amyloid beta (1 to 42) oligomer-induced memory impairment assessed as induction of fewer entries into dark compartment at 35 mg/kg, po starting from day 1 of amyloid beta (1 to 42) oligomer treatment and measured on day 7 by passive avoidance test; format: functional, organism-based
[13] = test system: Mus musculus; assay: (§1) Neuroprotective activity in Kunming mouse model of amyloid beta (1 to 42) oligomer-induced memory impairment assessed as reduction in neural degeneration in CA1 region at 17.5 to 35 mg/kg, po starting from day 1 of amyloid beta (1 to 42) oligomer treatment and measured on day 7 by Nissl's staining-based assay; format: functional, organism-based
[14] = test system: Mus musculus; assay: as §1, with “neuronal” for “neural”, “degeneration by measuring clear and intact neurons” for “degeneration”, “CA1 and CA3” for “CA1”, “TUNEL” for “Nissl's staining-based”; format: functional, organism-based
[15] = test system: Mus musculus; assay: Neuroprotective activity in Kunming mouse model of amyloid beta (1 to 42) oligomer-induced memory impairment assessed as reduction in neuronal degeneration by measuring reduction in degenerative changes in nucleus of CA1 and CA3 region at 17.5 to 35 mg/kg, po starting from day 1 of amyloid beta (1 to 42) oligomer treatment and measured on day 7 by TUNEL assay; format: functional, organism-based
[16] = test system: Mus musculus; assay: Neuroprotective activity amyloid beta (1 to 42) oligomer-induced memory impaired Kunming mouse assessed as reduction in apoptotic cells in CA1 and CA3 hipocampal neurons at 35 mg/kg, po starting from day 1 of amyloid beta (1 to 42) oligomer treatment and measured on day 7 by TUNEL assay; format: functional, organism-based
[17] = target: T1, Amyloid-beta precursor protein; assay: Potency index, ratio of IC50 for curcumin to IC50 for test compound for inhibition of amyloid beta (1 to 42) (unknown origin) self-aggregation after 24 hrs by thioflavin-T fluorescence assay

T1 sequence (P05067 whole entry): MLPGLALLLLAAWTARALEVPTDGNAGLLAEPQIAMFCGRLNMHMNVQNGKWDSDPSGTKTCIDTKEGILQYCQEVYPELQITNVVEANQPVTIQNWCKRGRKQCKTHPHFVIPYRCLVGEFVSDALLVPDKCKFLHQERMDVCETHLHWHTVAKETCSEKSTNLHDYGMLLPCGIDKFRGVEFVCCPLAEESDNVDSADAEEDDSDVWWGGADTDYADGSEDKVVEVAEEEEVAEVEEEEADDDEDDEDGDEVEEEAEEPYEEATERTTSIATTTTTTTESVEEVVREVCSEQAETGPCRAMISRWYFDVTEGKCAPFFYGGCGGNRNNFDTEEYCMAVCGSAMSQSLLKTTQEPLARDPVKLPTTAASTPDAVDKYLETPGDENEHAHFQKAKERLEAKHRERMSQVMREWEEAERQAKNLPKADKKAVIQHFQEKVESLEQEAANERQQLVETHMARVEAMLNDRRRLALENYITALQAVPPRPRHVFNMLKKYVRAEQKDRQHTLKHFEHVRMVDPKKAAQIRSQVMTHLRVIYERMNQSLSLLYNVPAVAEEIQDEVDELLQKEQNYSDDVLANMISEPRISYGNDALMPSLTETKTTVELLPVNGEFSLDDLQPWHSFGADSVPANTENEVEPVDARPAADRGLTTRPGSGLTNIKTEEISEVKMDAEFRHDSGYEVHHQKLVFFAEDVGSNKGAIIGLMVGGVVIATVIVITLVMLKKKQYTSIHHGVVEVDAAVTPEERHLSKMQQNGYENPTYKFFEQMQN

inhibition [1]: 70.5%
Structure (SMILES): C[C@H]1[C@H]2[C@H](C[C@H]3[C@@H]4CC[C@@H]5C[C@@H](OCc6ccccc6)CC[C@]5(C)[C@H]4CC[C@]23C)O[C@@H]1CC[C@H](C)C(=O)NCc1cn(Cc2ccc(Cl)cc2)nn1

inhibition [1]: 84.7% | IC50 [2]: 5.84 µM | Ratio IC50 [17]: 2.6
Structure (SMILES): COc1ccc(Cn2cc(CNC(=O)[C@@H](C)CC[C@H]3O[C@H]4C[C@H]5[C@@H]6CC[C@@H]7C[C@@H](OCc8ccccc8)CC[C@]7(C)[C@H]6CC[C@]5(C)[C@H]4[C@@H]3C)nn2)cc1
Activity [3]: Non-Toxic | viability at 12.5 µM [4]: 71.8% | viability at 25 µM [5]: 80.9% | viability at 50 µM [6]: 63.1% | Activity [7]: Active | Activity [8]: Non-Toxic | Activity [9]: Active | Activity [10]: Active | Activity [11]: Active | Activity [12]: Active | Activity [13]: Active | Activity [14]: Active | Activity [15]: Active | Activity [16]: Active

inhibition [1]: 37.5%
Structure (SMILES): C[C@H]1[C@H]2[C@H](C[C@H]3[C@@H]4CC[C@@H]5C[C@@H](OCc6ccccc6)CC[C@]5(C)[C@H]4CC[C@]23C)O[C@@H]1CC[C@H](C)C(=O)NCc1cn(Cc2ccc(F)cc2)nn1

inhibition [1]: 20.8%
Structure (SMILES): C[C@H]1[C@H]2[C@H](C[C@H]3[C@@H]4CC[C@@H]5C[C@@H](OCc6ccccc6)CC[C@]5(C)[C@H]4CC[C@]23C)O[C@@H]1CC[C@H](C)C(=O)NCc1cn(Cc2ccncc2)nn1

Continued, compound first:

Structure (SMILES): CC(C)n1cc(CNC(=O)[C@@H](C)CC[C@H]2O[C@H]3C[C@H]4[C@@H]5CC[C@@H]6C[C@@H](OCc7ccccc7)CC[C@]6(C)[C@H]5CC[C@]4(C)[C@H]3[C@@H]2C)nn1
inhibition [1]: 52.6%

Structure (SMILES): CCn1cc(CNC(=O)[C@@H](C)CC[C@H]2O[C@H]3C[C@H]4[C@@H]5CC[C@@H]6C[C@@H](OCc7ccccc7)CC[C@]6(C)[C@H]5CC[C@]4(C)[C@H]3[C@@H]2C)nn1
inhibition [1]: 11.8%

Structure (SMILES): CCCn1cc(CNC(=O)[C@@H](C)CC[C@H]2O[C@H]3C[C@H]4[C@@H]5CC[C@@H]6C[C@@H](OCc7ccccc7)CC[C@]6(C)[C@H]5CC[C@]4(C)[C@H]3[C@@H]2C)nn1
inhibition [1]: 21.8%

Structure (SMILES): COc1cc(Cn2cc(CNC(=O)[C@@H](C)CC[C@H]3O[C@H]4C[C@H]5[C@@H]6CC[C@@H]7C[C@@H](OCc8ccccc8)CC[C@]7(C)[C@H]6CC[C@]5(C)[C@H]4[C@@H]3C)nn2)cc(OC)c1
inhibition [1]: 31.5%

Structure (SMILES): C[C@H]1CC[C@@]2(OC1)O[C@H]1C[C@H]3[C@@H]4CC[C@@H]5C[C@@H](O)CC[C@]5(C)[C@H]4CC[C@]3(C)[C@H]1[C@@H]2C [SARSASAPOGENIN]
inhibition [1]: 16.4% | IC50 [2]: > 100 µM | viability at 12.5 µM [4]: 68.2% | viability at 25 µM [5]: 71% | viability at 50 µM [6]: 71.3%
